Laboratory results from ChEMBL document CHEMBL3885881, “DrugMatrix”.

Organism: Rattus norvegicus
Experiment: DrugMatrix - Regimen: Daily Repeat
Format: toxicity, organism-based, Sprague-Dawley
Set-up: regimen Daily Repeat, gender Male, age 6-8 weeks
Conditions: in vivo, po, route oral GAVAGE, […]; for ABSOLUTE BASOPHIL / ABSOLUTE EOSINOPHIL / ABSOLUTE LYMPHOCYTE / ABSOLUTE MONOCYTE / ABSOLUTE SEGMENTED NEUTROPHIL / BASOPHIL / EOSINOPHIL / ERYTHROCYTE COUNT / HEMATOCRIT / HEMOGLOBIN / LEUKOCYTE COUNT / LYMPHOCYTE / MEAN CORPUSCULAR HEMOGLOBIN / MEAN CORPUSCULAR HEMOGLOBIN CONCENTRATION / MEAN CORPUSCULAR VOLUME / MONOCYTE / NEUTROPHIL / NUCLEATED RED BLOOD CELLS / PLATELET COUNT: tissue Blood; for ALANINE AMINOTRANSFERASE / ALBUMIN / ALKALINE PHOSPHATASE / ASPARTATE AMINOTRANSFERASE / BLOOD UREA NITROGEN / CARBON DIOXIDE / CHLORIDE / CHOLESTEROL / CREATINE PHOSPHOKINASE / CREATININE / GLUCOSE / LACTATE DEHYDROGENASE / LIPASE / PHOSPHORUS / POTASSIUM / SODIUM / TOTAL BILIRUBIN / TOTAL PROTEIN / URIC ACID: tissue Plasma
[1] = 280 mg/kg, 120 h, dose level High, time 5 day
[2] = 72 h, dose 2.8 mg/Kg, dose level Low, time 3 day
[3] = 120 h, dose 2.8 mg/Kg, dose level Low, time 5 day

## CC/C(=C(/CC)c1ccc(O)cc1)c1ccc(O)cc1 [DIETHYLSTILBESTROL]
[1]
  ABSOLUTE BASOPHIL: 0 CELLS/uL
  ABSOLUTE EOSINOPHIL: 0 CELLS/uL
  ABSOLUTE LYMPHOCYTE: 5802 CELLS/uL
  ABSOLUTE MONOCYTE: 16.67 CELLS/uL
  ABSOLUTE SEGMENTED NEUTROPHIL: 514.67 CELLS/uL
  BASOPHIL: 0%
  EOSINOPHIL: 0%
  ERYTHROCYTE COUNT: 5.3 x10E6/uL
  HEMATOCRIT: 33.4%
  HEMOGLOBIN: 12.67 G/DL
  LEUKOCYTE COUNT: 6.33 x10E3/uL
  LYMPHOCYTE: 91.33%
  MEAN CORPUSCULAR HEMOGLOBIN: 23.9 pg
  MEAN CORPUSCULAR HEMOGLOBIN CONCENTRATION: 37.97 G/DL
  MEAN CORPUSCULAR VOLUME: 62.97 fL
  MONOCYTE: 0.33%
  NEUTROPHIL: 8.33%
  NUCLEATED RED BLOOD CELLS: 0.33 /100WBC
  PLATELET COUNT: 1806.33 x10E3/uL
  ALANINE AMINOTRANSFERASE: 47.33 u/L
  ALBUMIN: 3.6 G/DL
  ALKALINE PHOSPHATASE: 594.67 u/L
  ASPARTATE AMINOTRANSFERASE: 59 u/L
  BLOOD UREA NITROGEN: 14 mg/dL
  CARBON DIOXIDE: 28.33 mmol/L
  CHLORIDE: 100 MEQ/L
  CHOLESTEROL: 35 mg/dL
  CREATINE PHOSPHOKINASE: 88.33 u/L
  CREATININE: 0.3 mg/dL
  GLUCOSE: 144.67 mg/dL
  LACTATE DEHYDROGENASE: 47.33 u/L
  LIPASE: 9 u/L
  PHOSPHORUS: 9.33 mg/dL
  POTASSIUM: 5.01 MEQ/L
  SODIUM: 147.6 MEQ/L
  TOTAL BILIRUBIN: 0.6 mg/dL
  TOTAL PROTEIN: 6.27 G/DL
  URIC ACID: 0.3 mg/dL
[2]
  ABSOLUTE BASOPHIL: 0 CELLS/uL
  ABSOLUTE EOSINOPHIL: 0 CELLS/uL
  ABSOLUTE LYMPHOCYTE: 8607.33 CELLS/uL
  ABSOLUTE MONOCYTE: 102 CELLS/uL
  ABSOLUTE SEGMENTED NEUTROPHIL: 1057.33 CELLS/uL
  BASOPHIL: 0%
  EOSINOPHIL: 0%
  ERYTHROCYTE COUNT: 5.52 x10E6/uL
  HEMATOCRIT: 33.53%
  HEMOGLOBIN: 13.07 G/DL
  LEUKOCYTE COUNT: 9.77 x10E3/uL
  LYMPHOCYTE: 88%
  MEAN CORPUSCULAR HEMOGLOBIN: 23.73 pg
  MEAN CORPUSCULAR HEMOGLOBIN CONCENTRATION: 39.03 G/DL
  MEAN CORPUSCULAR VOLUME: 60.87 fL
  MONOCYTE: 1%
  NEUTROPHIL: 11%
  NUCLEATED RED BLOOD CELLS: 0 /100WBC
  PLATELET COUNT: 1167 x10E3/uL
  ALANINE AMINOTRANSFERASE: 57.33 u/L
  ALBUMIN: 3.83 G/DL
  ALKALINE PHOSPHATASE: 627.67 u/L
  ASPARTATE AMINOTRANSFERASE: 71 u/L
  BLOOD UREA NITROGEN: 7.67 mg/dL
  CARBON DIOXIDE: 26.67 mmol/L
  CHLORIDE: 105.33 MEQ/L
  CHOLESTEROL: 24.33 mg/dL
  CREATINE PHOSPHOKINASE: 222.33 u/L
  CREATININE: 0.12 mg/dL
  GLUCOSE: 155.33 mg/dL
  LACTATE DEHYDROGENASE: 64 u/L
  LIPASE: 8 u/L
  PHOSPHORUS: 9.27 mg/dL
  POTASSIUM: 5.23 MEQ/L
  SODIUM: 147.13 MEQ/L
  TOTAL BILIRUBIN: 0.13 mg/dL
  TOTAL PROTEIN: 5.6 G/DL
  URIC ACID: 0.6 mg/dL
[3]
  ABSOLUTE BASOPHIL: 0 CELLS/uL
  ABSOLUTE EOSINOPHIL: 46 CELLS/uL
  ABSOLUTE LYMPHOCYTE: 6817.67 CELLS/uL
  ABSOLUTE MONOCYTE: 68 CELLS/uL
  ABSOLUTE SEGMENTED NEUTROPHIL: 335 CELLS/uL
  BASOPHIL: 0%
  EOSINOPHIL: 0.67%
  ERYTHROCYTE COUNT: 5.68 x10E6/uL
  HEMATOCRIT: 36.33%
  HEMOGLOBIN: 13.8 G/DL
  LEUKOCYTE COUNT: 7.27 x10E3/uL
  LYMPHOCYTE: 93.33%
  MEAN CORPUSCULAR HEMOGLOBIN: 24.3 pg
  MEAN CORPUSCULAR HEMOGLOBIN CONCENTRATION: 38.03 G/DL
  MEAN CORPUSCULAR VOLUME: 64 fL
  MONOCYTE: 0.67%
  NEUTROPHIL: 5.33%
  NUCLEATED RED BLOOD CELLS: 0.33 /100WBC
  PLATELET COUNT: 1219.67 x10E3/uL
  ALANINE AMINOTRANSFERASE: 60.67 u/L
  ALBUMIN: 3.7 G/DL
  ALKALINE PHOSPHATASE: 729.67 u/L
  ASPARTATE AMINOTRANSFERASE: 65.67 u/L
  BLOOD UREA NITROGEN: 11.33 mg/dL
  CARBON DIOXIDE: 26.33 mmol/L
  CHLORIDE: 103.33 MEQ/L
  CHOLESTEROL: 19.33 mg/dL
  CREATINE PHOSPHOKINASE: 162.33 u/L
  CREATININE: 0.19 mg/dL
  GLUCOSE: 151.33 mg/dL
  LACTATE DEHYDROGENASE: 62 u/L
  LIPASE: 9.33 u/L
  PHOSPHORUS: 8.9 mg/dL
  POTASSIUM: 4.57 MEQ/L
  SODIUM: 146.9 MEQ/L
  TOTAL BILIRUBIN: 0.13 mg/dL
  TOTAL PROTEIN: 6.03 G/DL
  URIC ACID: 0.5 mg/dL
